Experimental data taken from PMC5907308, “21st Brazilian Diabetes Society Congress” (Diabetology & Metabolic Syndrome, 2018).
Like-named read-outs stand apart in the source and are kept apart here.

Tests used:
[1] = test system: Gram-positive; assay: Antibiogram of tissue fragment cultures of infected diabetic foot ulcers, Gram-positive; assay type: cell-based; details: 51 cultures of tissue fragment, WHONET 5.6, Graphic 2
Excerpt: DFU patients with tissue fragment culture and antibiogram were included in the study sample. Microbiota resistance profile analyzed through WHO freeware softwares BACLINK 2.0 and WHONET 5.6.

[2] = test system: Slc2a4/GLUT4 expression in 3T3-L1 cell line adipocytes; assay: Slc2a4/GLUT4 expression in adipocytes (Western blotting, RTqPCR); assay type: cell-based; details: 24 h; E2 10 nM; PPT 10 nM; DPN 100 nM, in the presence or absence of E2
Description: It is known that estradiol (E2) via its receptors, ER-alpha and ER-beta, regulates the gene expression through direct binding to DNA, or through interactions with transcription factors, among them SP1 (Sp1 transcription factor). […] Thus, the role of SP1 in the expression of estradiol-mediated Slc2a4/GLUT4 in 3T3-L1 cell line adipocytes was evaluated in an attempt to understand the role of each estradiol receptors in this regulation. For this, the adipocytes were treated with 10 nM estradiol plus 0.05% DMSO (used to solubilize the ER agonists) for 24 h. Cells were also cultured with selective agonists of the different ER isoforms. To evaluate the ER-alpha, the PPT was used, in the concentration of 10 nM, with or without 10 nM of E2 (10E2 + PPT); to evaluate the ER-beta, the DPN was used in the concentration of 100 nM, with or without 10 nM of E2 (10E2 + DPN); always for 24 h. In the control group (0E2), cells were treated with only 0.05% DMSO (vehicle of agonists). The analyzes were: quantification of total GLUT4 protein, nuclear SP1 and nuclear ER-alpha/beta (Western blotting); expression of the Slc2a4 and Sp1 (RTqPCR) genes; and binding activity of the ERs to the SP1 binding site on the Slc2a4 promoter (electrophoretic mobilization, EMSA). Treatment with E2 increased the expression of Slc2a4/GLUT4. […] However, it was observed that both ERalpha and ER-beta activation increased the nuclear content of the transcription factor SP1, however, only the ER-alpha effect, especially isolated, seems to involve SP1 in the observed regulation.

[3] = test system: patients with DM1
Description: Methods: Observational and retrospective study in which they were analysed the medical recordo f patients with DM1 who made use of this medication in dose of 10 mg/day through 3-6 months.

[4] = test system: patient with type 2 diabetes mellitus
Description: Case report: M.G.G.A, person, married, sought an endocrinologist in 2014 due to the diagnosis of type 2 diabetes mellitus 3 years ago, they used glimeperide 4 mg/day and metformin (MTF) 1 g/day. They were hypertensive and dyslipidemic, already under treatment, and reported difficulty in losing and maintaining weight for several years. They denied physical activity (PA) practice for 1 month (before walking 3x/week) and in a 24-hour diet reminder there was an excess of simple carbohydrate (SC) intake and saturated fat (SF). […] The patient was oriented to change their lifestyle and it was also requested exams. […] At this time, due financial limitation, they were directed to maintain medications, prescribed vitamin D3 14,000 IU/week and stimulated lifestyle change (LC).

[5] = test system: healthy and non-diabetic women; details: after 7 days
Description: Methods: Twenty healthy and non-diabetic women (19–37 years old) were evaluated at baseline and 7 days after dapagliflozin (10 mg/day), maintaining their regular lifestyle. Body mass index (BMI), sagittal abdominal diameter, body composition by electrical bioimpedance and energy expenditure of resting and oxidation of energetic substrates in fasting by indirect calorimetry were analyzed. Functional magnetic resonance imaging detected the activation of brain areas against the stimulation of glucose and dapagliflozin. From the oral glucose tolerance test (TTOG), insulin sensitivity, hepatic insulin extraction and beta-cell function were assessed by mathematical modeling. Moreover, glucose, insulin, peptide C, glucacon, glycated hemoglobin, adiponectin and free fatty acids were measured.

[6] = test system: C57BL/6 mice
Description: Methods: C57BL/6 mice received vehicle or dapagliflozin (1, 5 or 10 mg/kg) by gavage once a day for 2 weeks. Body weight and food intake were evaluated at treatment times 0, 7 and 14 days. At the end of the treatment, glucose tolerance was evaluated by ipGTT as well as epididymal adipose tissue weight and neurotransmitters by immunofluorescence.

[7] = test system: patient with type 2 diabetes; details: in vivo
Description: An overweight person (BMI 37.4 kg/m^2) with a 9-year history of type 2 diabetes had been taking metformin (1 g/day), glyburide (10 mg/day) and vildaglipitin (100 mg/day) for 7 years. They were admitted for elective bariatric surgery and stopped their medications a day before. […] It is known that there are some factors that contribute for DKA, like decreasing in-carbohydrate intake, infection or reduction of insulin therapy.

[8] = test system: patients after Roux-en-Y gastric bypass; assay: Postprandial hyperinsulinemic hypoglycemia after RYGB, case series; assay type: in vivo, human; details: Case 1
Description: Cases report: Case (1) A person developed postprandial hypoglycemic episodes 6 years after Roux-en-Y gastric bypass (RYGB). A mixed meal tolerance test (MMTT, 500 kcal, 20% protein, 20% fat and 60% carbohydrates) was performed, leading to symptomatic postprandial hyperinsulinemic hypoglycemia (PHH) with a nadir of 45 mg/dL at 120 min (insulin of 8 mU/L; C-peptide of 3.21 ng/mL). […] Cases 2 and 3). Two […] women presented hypoglycemia following meals 3 and 5 years after RYGB. MMTT (120 min): glycemia of 34 mg/dL, insulin of 17 mU/L and C-peptide of 6.23 ng/mL and, in the second one, glycemia of 52 mg/dL, insulin of 9 mU/L and C-peptide of 2.7 ng/mL. PT and MRCP were normal in both cases. […] Case 4). A person who underwent RYGB 1.5 years ago reported hypoglycemic episodes in the last 6 months. MMTT: glycemia of 26 mg/dL at 150 min, insulin of 34 mU/L and C-peptide of 6.03 ng/mL. […] They were submitted to distal pancreatectomy and symptoms disappeared after diazoxid and hydrochlorothiazide. Case 5). A person developed hypoglycemia 10 years after RYGB. […] MMTT: glycemia of 43 mg/dL at 120 min, insulin of 100 mU/L and C-peptide of 1.95 ng/mL. […] Antiinsulin antibodies were negative in all cases (Table 1).

[9] = test system: patient with T2DM; assay type: in vivo; details: systemic treatment
Description: After evaluation and exclusion of other diagnoses (medication use, trauma, or facial surgery) as well as exclusion of another kind of diabetic neuropathy, such as sensitive or cardiac autonomic neuropathy, the hypothesis of diabetic gustatory sweating (DGS) was established.

[10] = test system: participants with T2DM; assay: Vitamin D supplementation, randomized placebo-controlled trial, oxidative stress biomarkers; assay type: in vivo, human
Description: Methods: The participants (n = 31; age 46 ± 6.45 years; sex 21/10 female/male) with T2DM were enrolled in this study in two groups. One group received one capsule/week of vitamin D (50.000 U) or placebo for 90 days. At the beginning and after intervention, laboratory analyses (biochemical and OS markers) were performed. After fasting for 12 h, the subjects underwent the following laboratory blood analysis: glucose, lipid profile, uric acid, and C-reactive protein (CRP) which were evaluated by a biochemical autoanalyzer (Dimension Dade AR; Dade Behring), insulin and vitamin D were evaluated by MEIA (AxSYM, Abbott Laboratory, Abbott Park, IL, USA). Advanced oxidation protein products (AOPP) were determined in the plasma using the semiautomated method described by Witko-Sarsat. Analysis of plasma hydroperoxide concentrations was evaluated by two methods (tertbutyl hydroperoxide-initiated chemiluminescence and FOX assay). This study was conducted according to the principles of the Helsinki, and the study protocol was approved by the ethics committee of the University (CAAE: 41718014.9.0000.5231). Kruskal- Wallis with post hoc Dunn’test was performed to verify differences across intervention (placebo or vitamin D). Graph Pad Instat 3 version was used for evaluations.

[11] = test system: patient with BSCL; assay: Case report: metreleptin in Berardinelli-Seip congenital lipodystrophy; assay type: in vivo, human
Description: Case presentation: Two brothers with neonatal diagnosis of Berardinelli-Seip Congenital Lipodystrophy (BSCL), without cases of diabetes or similar diseases in their family. Clinically, both present muscular hypertrophy and acromegaloid features. […] Serum leptin 1 ng/mL (reference range: 2–18). […] Leptin 1.3 ng/mL. In 2016, HbA1C 7.8%, in use of Metformin 2 g/day, pioglitazone and vitamins E, A and D supplementation. […] By that time, Metreleptin was initiated at a 5 mg/day dose (0.07 mg/kg/day) and Metformin was maintained. After 3 months, the patient has HbA1C 5%, triglyceride level 70 mg/dL, TGO 42 U/L and TGP 32 U/L.

[12] = test system: child with CGL type 2; assay: Case report: high doses of insulin in congenital generalized lipodystrophy; assay type: in vivo, human; details: continuous IV infusion of RI raised to 26.6 IU/kg/day
Description: Case: Child with clinical diagnosis of CGL type 2 and diagnosis of diabetes for 1 year. Using Glargina and Lispro insulin basal/bolus (5.1 IU/kg/day) presented mean daily capillary glycemia above 600 mg/dl, associated with irritability, low weight and voracious appetite. Interned for intravenous insulin therapy and nutritional adjustment with standardized diet of 1600 kcal/day fractionated in 7 meals. Initiated continuous infusion of regular insulin (RI), 6.1UI/kg/day. […] Subsequently, it was modified to intramuscular administration, in 5 application times, without differences in glycemic averages. On the 36 th day, Degludeca insulin was introduced (9.3 IU/kg/day) associated with RI (18.2 U/kg/day), evolving within the first 24 h with improved glycemia (180 ± 42 mg/dl). […] After approximately fivefold increase in the initial insulin dose, there was improvement in glycemia, irritability, weight gain and decreased appetite.

CO/N=C(\C(=O)N[C@@H]1C(=O)N2C(C(=O)O)=C(CSc3nc(=O)c(=O)[nH]n3C)CS[C@H]12)c1csc(N)n1 [Ceftriaxone]
%R (resistance), Gram-positive [1]: 70%

N#CC(Cc1ccc(O)cc1)c1ccc(O)cc1 (centres unmarked) [DPN]
Slc2a4/GLUT4 expression [2]: decreased

CCOc1ccc(Cc2cc([C@@H]3O[C@H](CO)[C@@H](O)[C@H](O)[C@H]3O)ccc2Cl)cc1 [Dapaglifozin, dapagliflozin]
average BMI after treatment ([3]; 26.1 before, p = 0.002): 25.4 kg/m^2 | systolic blood pressure, median after therapy ([3]; 120 mmHg before, p = 0.02): 115 mmHg | patients with ketoacidosis ([3]; in vivo): 8.3% | patients with pain or pruritus on genital region ([3]; in vivo): 33.3% | patients with urinary tract infection (UTI) ([3]; n = 12): 8.3% | average weight after therapy ([3]; n = 12, 68.3 kg before, p = 0.002): 65.3 kg | weight (W) ([4]; 9 months of DAPA 10 mg/day and MTF 1 g/day, 78.6 kg before): 69.9 kg | BMI ([4]; 9 months, 33.14 before): 29.47 kg/m^2 | abdominal circumference (AC) ([4]; 9 months, 108 cm before): 98 cm | postprandial glycemia (PPG) ([4]; 9 months, 163 before): 152 mg/dL | fasting glycemia (FG) ([4]; 9 months, 166 before): 118 mg/dL | Hb1Ac ([4]; 9 months, […] before): 7.0% | HbA1c ([4]; during 3 years of follow-up): around 6.8% | weight (W) ([4]; during 3 years of follow-up): 69 kg | adiponectin levels ([5]; 3.2 ± 1.4 at baseline, p = 0.02): 5.7 ± 3.3 µg/mL | insulinemia ([5]; 5.7 ± 3.6 at baseline, p = 0.05): 3.9 ± 3.5 mU/mL | BMI ([5]; 21.7 ± 2.0 at baseline, p = 0.05): 21.5 ± 2.0 kg/m^2 | fat percentage ([5]; 28.4 ± 6.3 at baseline, p = 0.46): 27.6 ± 4.0% | glycemia ([5]; 75 ± 7 at baseline, p = 0.02): 71 ± 7 mg/dL | body weight gain (mean) ([6]; 1, 5 or 10 mg/kg, 2 weeks, p < 0.05): 0.56 ± 1.1 g | food intake ([6]; 2 weeks): did not alter food intake significantly | fasting glycemia (mean) ([6]; 2 weeks, p < 0.05): 165.6 ± 28.8 mg/dL | epididymal adipose mass (mean) ([6]; 2 weeks, p = 0.13): 0.15 ± 0.02 g | area under glucose curve during the glucose tolerance test (mean) ([6]; ipGTT, p < 0.05): 28,078 ± 5623.5 arbitrary units | glycosuria (mean) ([6]; min = 30, max = 1221, p < 0.05): 307.2 mg/dL | arterial pH at readmission [7]: 7.23 | bicarbonate at readmission [7]: 5 mEq/L | glucose at readmission [7]: 165 mg/dL

C[C@]12CC[C@@H]3c4ccc(O)cc4CC[C@H]3[C@@H]1CC[C@@H]2O [E2, estradiol]
Slc2a4/GLUT4 expression [2]: increased

CC[C@H]1OC(=O)[C@H](C)[C@@H](O[C@H]2C[C@@](C)(OC)[C@@H](O)[C@H](C)O2)[C@H](C)[C@@H](O[C@@H]2O[C@H](C)C[C@H](N(C)C)[C@H]2O)[C@](C)(O)C[C@@H](C)C(=O)[C@H](C)[C@@H](O)[C@]1(C)O [Erythromycin]
%R (resistance), Gram-positive [1]: 70%

Cc1onc(-c2ccccc2)c1C(=O)N[C@@H]1C(=O)N2[C@@H]1SC(C)(C)[C@@H]2C(=O)O [Oxacillin]
%R (resistance), Gram-positive [1]: 70%

CCCc1c(-c2ccc(O)cc2)nn(-c2ccc(O)cc2)c1-c1ccc(O)cc1 [PPT]
Slc2a4/GLUT4 expression [2]: increase

CC1=Nc2ccc(Cl)cc2S(=O)(=O)N1 [diazoxid]
clinical response of postprandial hypoglycemia [8]: hypoglycemia was avoided

CCN(CC)CC#CCOC(=O)C(O)(c1ccccc1)C1CCCCC1 (centres unmarked) [oxybutynin]
response of gustatory sweating [9]: excellent response as early as week 1 | side effect [9]: mild side effect of xerostomia

C=C1CC[C@H](O)C/C1=C/C=C1\CCC[C@]2(C)[C@@H]([C@H](C)/C=C/[C@H](C)C(C)C)CC[C@@H]12 [vitamin D]
hydroperoxides levels vs placebo group ([10]; 50.000 U/week, 90 days, p = 0.008): significant reduction | FOX levels vs placebo group ([10]; 50.000 U/week, 90 days, p = 0.08): trend to decrease | AOPP vs placebo group ([10]; one capsule/week 50.000 U for 90 days, plasma, p = 0.05): significant reduction

Metreleptin: a recombinant leptin analog
HbA1C ([11]; 3 months of Metreleptin 5 mg/day with Metformin, […] before): 5% | TGO ([11]; after 3 months): 42 U/L | TGP ([11]; after 3 months): 32 U/L

RI: regular insulin
mean capillary glycemia [12]: 283 ± 99 mg/dL
